# Results: PMC2606880 (Diabetes, 2009)
# Read-outs that look alike come from different tables or passages of the source.
# Columns and labels:
# [1] = cited from earlier work
# [2] = tested on: conscious dogs; type: in vivo, dog; conditions: vildagliptin-treated group
# [3] = tested on: type 2 diabetic patients; conditions: 4 weeks of treatment; cited from earlier work
# [4] = tested on: conscious dogs; type: in vivo, dog; conditions: for Net hepatic alanine uptake / Net hepatic glycerol uptake / Plasma free fatty acid level: vildagliptin 1 mg/kg oral, mean ± SE, n = 6
# [5] = tested on: conscious dogs; assay: Tolerability of oral vildagliptin; type: in vivo, dog; conditions: vildagliptin 1 mg/kg by stomach gavage; all animals
# [6] = tested on: conscious dogs; assay: Plasma pancreatic hormone levels; type: in vivo, dog; conditions: vildagliptin-treated group
# [7] = basal period, mean ± SEM, n = 6
smiles,measurement,setting,value
"CC[C@H](C)[C@H](NC(=O)[C@H](Cc1ccccc1)NC(=O)[C@H](CCC(=O)O)NC(=O)[C@H](CCCCN)NC(=O)[C@H](C)NC(=O)[C@H](C)NC(=O)[C@H](CCC(N)=O)NC(=O)CNC(=O)[C@H](CCC(=O)O)NC(=O)[C@H](CC(C)C)NC(=O)[C@H](Cc1ccc(O)cc1)NC(=O)[C@H](CO)NC(=O)[C@H](CO)NC(=O)[C@@H](NC(=O)[C@H](CC(=O)O)NC(=O)[C@H](CO)NC(=O)[C@@H](NC(=O)[C@H](Cc1ccccc1)NC(=O)[C@@H](NC(=O)CNC(=O)[C@H](CCC(=O)O)NC(=O)[C@H](C)NC(=O)[C@@H](N)Cc1c[nH]cn1)[C@@H](C)O)[C@@H](C)O)C(C)C)C(=O)N[C@@H](C)C(=O)N[C@@H](Cc1c[nH]c2ccccc12)C(=O)N[C@@H](CC(C)C)C(=O)N[C@H](C(=O)N[C@@H](CCCCN)C(=O)NCC(=O)N[C@@H](CCCNC(=N)N)C(N)=O)C(C)C [GLP-1, Glucagon-like peptide 1]",clearance,"dog, in vivo, iv",38 ± 5 mL/min/kg
same,share of the kidneys in the degradation of intact GLP-1,[1],10–20%
N#C[C@@H]1CCCN1C(=O)CNC12CC3CC(CC(O)(C3)C1)C2 [Vildagliptin],increase in arterial and portal vein GLP-1 concentrations,vildagliptin 1 mg/kg oral vs control,70%
same,increase of nonhepatic glucose uptake from basal,"[2]; basal period to last 3 h, not significant vs control",8.1 ± 1.4 mg/kg/min
same,Nonhepatic glucose uptake (non-HGU),[2]; [7],2.3 ± 0.3 mg/kg/min
same,net hepatic glucose balance (positive = output),[2]; [7],2.1 ± 0.2 mg/kg/min
same,Nonhepatic glucose uptake (non-HGU),"[2]; last 3 h, mean ± SEM, n = 6",10.4 ± 1.4 mg/kg/min
same,net hepatic glucose fractional extraction,"[2]; last 3 h, mean ± SEM, n = 6, P < 0.05",0.06 ± 0.01
same,increase in the rise in active GLP-1 after meals,[3],twofold or greater increase
same,Free fatty acid and glycerol levels lower than in control,"[4]; basal period, vildagliptin-treated group",~25%
same,Net hepatic alanine uptake,[4]; experimental period 60 min,1.8 ± 0.2 µmol/kg/min
same,Net hepatic glycerol uptake,[4]; experimental period 60 min,0.5 ± 0.2 µmol/kg/min
same,Plasma free fatty acid level,[4]; experimental period 60 min,111 ± 23 µmol/L
same,Net hepatic alanine uptake,[4]; experimental period 120 min,2.0 ± 0.5 µmol/kg/min
same,Net hepatic glycerol uptake,[4]; experimental period 120 min,0.5 ± 0.1 µmol/kg/min
same,Plasma free fatty acid level,[4]; experimental period 120 min,88 ± 26 µmol/L
same,Net hepatic alanine uptake,[4]; experimental period 180 min,2.2 ± 0.2 µmol/kg/min
same,Net hepatic glycerol uptake,[4]; experimental period 180 min,0.4 ± 0.2 µmol/kg/min
same,Plasma free fatty acid level,[4]; experimental period 180 min,71 ± 25 µmol/L
same,Net hepatic alanine uptake,[4]; experimental period 210 min,2.4 ± 0.2 µmol/kg/min
same,Net hepatic glycerol uptake,[4]; experimental period 210 min,0.5 ± 0.2 µmol/kg/min
same,Plasma free fatty acid level,[4]; experimental period 210 min,82 ± 31 µmol/L
same,Net hepatic alanine uptake,[4]; experimental period 240 min,2.5 ± 0.3 µmol/kg/min
same,Net hepatic glycerol uptake,[4]; experimental period 240 min,0.3 ± 0.1 µmol/kg/min
same,Plasma free fatty acid level,[4]; experimental period 240 min,66 ± 15 µmol/L
same,tolerability,[5],well tolerated
same,increase of arterial plasma C-peptide,[6]; basal period to last 3 h,3.6 fold
same,Hepatic sinusoidal plasma glucagon level,[6]; [7],43 ± 3 pg/mL
same,arterial plasma C-peptide level,[6]; [7],0.39 ± 0.04 ng/mL
same,arterial plasma insulin,[6]; [7],6 ± 1 μU/ml
same,hepatic sinusoidal plasma insulin,[6]; [7],17 ± 3 μU/ml
same,Hepatic sinusoidal plasma glucagon level,"[6]; experimental period, mean ± SEM, n = 6",23 ± 4 pg/mL
same,increase of arterial plasma insulin from basal period to last 3 h,[6],5.5 fold
same,increase of hepatic sinusoidal plasma insulin from basal period to last 3 h,[6],5.4 fold
same,average hepatic insulin level greater than in the control group,[6]; not statistically significant,15 μU/ml
